The values below come from ChEMBL document CHEMBL1136365, “Hepatoprotective pyrrole derivatives of Lycium chinense fruits” (2003).

Assay type in all cases: functional, Hepatocyte
For assay [1], the species on record is Rattus norvegicus. Put plainly: Tested for release of glutamic pyruvic transaminase (GPT) from CCl4 induced toxicity in primary cultures of rat hepatocytes at 0.01 uM concentration.
For assay [2], the species on record is Rattus norvegicus. Put plainly: Tested for release of glutamic pyruvic transaminase (GPT) from CCl4 induced toxicity in primary cultures of rat hepatocytes at 1 uM concentration.
The species entered for assay [3] is Rattus norvegicus. Put plainly: Tested for release of glutamic pyruvic transaminase (GPT) from CCl4 induced toxicity in primary cultures of rat hepatocytes at 10 uM concentration.
The species named for assay [4] is Rattus norvegicus. Put plainly: Tested for release of glutamic pyruvic transaminase (GPT) from CCl4 induced toxicity in primary cultures of rat hepatocytes at 0.1 uM concentration.
For assay [5], the species on record is Rattus norvegicus. Put plainly: Tested for release of glutamic pyruvic transaminase (GPT) from CCl4 induced toxicity in primary cultures of rat hepatocytes at 50 uM concentration.

As for `O=Cc1ccc(CO)n1CCCC(=O)O`, the Relative protection is listed as 12.4% in the assay filed under Rattus norvegicus [1], 39.7% in the assay filed under Rattus norvegicus [2], 3.2% in the assay filed under Rattus norvegicus [3] and 64.4% in the assay listed under Rattus norvegicus [4].

Regarding `COC(=O)CCCn1c(C=O)ccc1CO`, the Relative protection in the assay listed under Rattus norvegicus [1] is 5.1%; in the assay filed under Rattus norvegicus [2] it was 40.8%; in the assay listed under Rattus norvegicus [3], 20.8%; in the assay filed under Rattus norvegicus [4], 30.8%.

As for `COCc1ccc(C=O)n1CCCC(=O)OC`, the Relative protection worked out at 8.9% in the assay filed under Rattus norvegicus [1], 13.2% in the assay filed under Rattus norvegicus [2], 15.9% in the assay filed under Rattus norvegicus [3] and 38.5% in the assay listed under Rattus norvegicus [4].

As for `COCc1ccc(C=O)n1CCCC(=O)O`, the Relative protection was determined as 36% in the assay filed under Rattus norvegicus [1], 29.2% in the assay listed under Rattus norvegicus [2], 14.2% in the assay filed under Rattus norvegicus [3] and 65.8% in the assay filed under Rattus norvegicus [4].

In the case of `COc1cc([C@H]2Oc3cc([C@H]4Oc5cc(O)cc(O)c5C(=O)[C@@H]4O)ccc3O[C@@H]2CO)ccc1O` [SILIBININ], the Relative protection in the assay listed under Rattus norvegicus [5] was 45.5%; in the assay filed under Rattus norvegicus [2], 14.6%; in the assay filed under Rattus norvegicus [3], 28.8%.
